Laboratory results: patent US20240425460A1, “CRYSTAL FORM OF NIROGACESTAT DIHYDROBROMIDE, AND PREPARATION METHOD THEREFOR, AND USE THEREOF” (CRYSTAL PHARMACEUTICAL (SUZHOU) CO., LTD., priority 2022, published 2024)

Columns and labels:
physchem = assay: physchem
Protocol: 1.9 mg of Form CSII was weighted into a glass vial, then water was added dropwise at 37° C. until the solid is completely dissolved. The maximum insoluble volume and minimum dissolved volume of the sample in water were recorded, and the solubility of Form CSII in water (mg/mL) was calculated.

[1] = for Solubility in FaSSIF / Solubility in FeSSIF: 1 h
From the text: When solubility test is used to predict the in vivo performance of a drug, it is critical to simulate in vivo conditions as closely as possible. Fasted state simulated intestinal fluid (FaSSIF) and fed state simulated intestinal fluid (FeSSIF) can be used to simulate the conditions in vivo and predict the effects of eating, thus solubilities in these media are closer to those in vivo.
A certain amount of Form CSII and prior art Form A were suspended into FeSSIF and FaSSIF to get saturated solutions at 37° C. After equilibrated for 1 h, concentrations of the saturated solutions were measured by HPLC.
A certain amount of Form CSIII and Form A in the prior art were suspended into FeSSIF and FaSSIF to get saturated solutions at 37° C. After equilibrated for 1 h, concentrations of the saturated solutions were measured by HPLC.

[2] = Morphology by polarized light microscopy; format: physicochemical; conditions: PLM, magnification 100 times
Protocol: PLM data in the present disclosure were acquired by Sunny CX40P polarizing microscope.
The parameter of the PLM method of the present disclosure is as follows: • Magnification times: 100
About 0.5 mg Form CSII and prior art Form A were placed on a glass slide, a small amount of immersion oil was added to disperse the sample, and then the system was covered with a coverslip.
About 0.5 mg Form CSIII and prior art Form A were placed on a glass slide, a small amount of immersion oil was added to disperse the sample, and then the system was covered with a coverslip.

[3] = Particle size distribution (Mastersizer 3000, wet mode); format: physicochemical
Protocol: The particle size distribution data in the present disclosure were acquired by a Mastersizer 3000 laser particle size analyzer of Malvern. The test was carried out in wet mode, using a Hydro MV dispersion device, and the dispersant was Isopar G. The parameters are as follows:
Form CSII and prior art Form A were added into glass vials with the Isopar G (containing 0.2% lecithin). The mixture was mixed thoroughly and transferred into the Hydro MV dispersing device. The experiment was started when the obscuration is in appropriate range. The particle size distributions were tested before and after 60 seconds of ultrasonication to obtain the average particle size, D10 (the portion of particles with diameters below this value is 10%), D50 (the portion of particles with diameters below this value is 50%) and D90 (the portion of particles with diameters below this value is 90%), the results are listed in Table 9.

[4] = Density and flowability (bulk/tapped density, compressibility index); format: physicochemical; conditions: for Compressibility index: c=(ρf−ρ0)/ρf; for Tapped density (ρf): tapped 1250 times
Protocol: About 300-500 mg of powder were added into a 5-mL measuring cylinder, and a bulk density was recorded. Then the powder was tapped for 1250 times by ZS-2E tap density tester to make it in the tightest state and the tapped volume was recorded. The bulk density (ρ0) and tapped density (ρf) were calculated.
Compressibility also known as the Compressibility index or Carr index is usually utilized to evaluate the flowability of powder or granules during the drug product process. Compressibility index was calculated according to c=(ρf−ρ0)/ρf. According to criteria of flowability recorded in ICH Q4B Annex 13, the smaller the compressibility index, the better the flowability.

[5] = Compressibility (tensile strength after compression at 3 KN); format: physicochemical; conditions: 60 mg, Φ6 mm round tooling, T=2H/πDL
Protocol: ENERPAC manual tablet press was used for compression. 60 mg of Form CSII and prior art Form A were weighed and added into the dies of a Φ6 mm round tooling, compressed at 3 KN manually, then stored at room temperature for 24 h until elastic recovery is complete, diameter (D) and thickness (L) were tested with a caliper. Hardness (H) was tested with an intelligent tablet hardness tester. Tensile strength of the powder was calculated with the following formula: T=2H/πDL. […] Under a certain force, the greater the tensile strength, the better the compressibility.

[6] = Physical stability upon mechanical force (tableting, XRPD); format: physicochemical; conditions: 5 kN pressure for 10 s
From the text: A certain amount of Form CSII was compressed into a tablet under 5 kN pressure with the dies of a Φ6 mm round tooling by the manual tablet press, and the tablet was kept under 5 kN pressure for 10 s. Crystalline form before and after tableting were checked by XRPD.

[7] = Stability of drug substance on storage (XRPD, HPLC); format: physicochemical
Protocol: A certain amount of Form CSII were stored under different conditions of 25° C./60% RH and 40° C./75% RH after packing with different conditions listed in Table 11. Crystalline forms and chemical purities were checked by XRPD and HPLC, respectively.
Sealed with desiccants and antioxidants: Put a sample into a glass vial, cover the vial with aluminum foil, and punch holes in the foil, then seal the glass vial with 2 g silica gel desiccants and 2.2 g antioxidants in an aluminum foil bag.
A certain amount of Form CSIII were stored under different conditions of 25° C./60% RH, 40° C./75% RH and 60° C./75% RH after packing with different conditions listed in Table 16. Crystalline forms were checked by XRPD.
Sealed with desiccants and antioxidants: Put a sample into a glass vial, cover the vial with aluminum foil, and punch holes in the foil, then seal the glass vial with 2 g silica gel desiccant and 2.2 g antioxidant in an aluminum foil bag.

[8] = Stability of crystalline form in formulation process (XRPD); format: physicochemical; conditions: pre-blending, simulated dry granulation, tableting 5 kN
Protocol: The XRPD of the blank mixed powder and the samples before and after the formulation was tested.

[9] = 25° C./60% RH, sealed with desiccant and antioxidant
[10] = 40° C./75% RH, sealed with desiccant and antioxidant

Solubility in FaSSIF, times that of prior art Form A [1] [times]	Solubility in FeSSIF, times that of prior art Form A [1] [times]	Solubility in FaSSIF [1]	Solubility in FeSSIF [1]	Morphology [2]	Average particle size ([3]; ultrasonication time 0 s) [μm]	D10 ([3]; ultrasonication time 0 s) [μm]	D50 ([3]; ultrasonication time 0 s) [μm]	D90 ([3]; ultrasonication time 0 s) [μm]	Average particle size ([3]; ultrasonication time 60 s) [μm]	D10 ([3]; ultrasonication time 60 s) [μm]	D50 ([3]; ultrasonication time 60 s) [μm]	D90 ([3]; ultrasonication time 60 s) [μm]	Bulk density (ρ0) [4] [g/mL]	Compressibility index [4] [%]	Tapped density (ρf) [4] [g/mL]	Tensile strength [5] [MPa]	Time the form keeps stable [7, 9]	Time the form keeps stable [7, 10]	Compound	also measured
1.5	1.5	9.8	11.7	uniform plate crystalline form	198	21.9	157	435	119	10.3	81.7	282	0.49	5.3	0.51	0.68	at least 9 months	at least 6 months	Br.Br.CCC[C@H](N[C@H]1CCc2cc(F)cc(F)c2C1)C(=O)Nc1cn(C(C)(C)CNCC(C)(C)C)cn1 [Form CSII, (S)-2-(((S)-6,8-difluoro-1,2,3,4-tetrahydronaphthalen-2-yl)amino)-N-(1-(2-methyl-1-(neopentylamino)propan-2-yl)-1H-imidazol-4-yl) pentanamide]	Solubility in water, times that of Form A (physchem): 3-5 times; solubility (physchem; 37 °C, water, thermodynamic from solid): 19 to 38 mg/mL; Crystalline form after tableting [6]: remains stable after tableting; Purity after storage ([7]; 25° C./60% RH, 9 months, sealed with desiccants and antioxidants, HPLC): 99.43%; Purity after storage ([7]; 40° C./75% RH, 6 months, sealed with desiccants and antioxidants, HPLC): 99.42%; Purity ([7]; initial, HPLC): 99.37%; Crystalline form after formulation process [8]: remains stable after the formulation process
1.3	1.5	8.7	11.7	uniform plate crystalline form													at least 3 months	at least 3 months	Br.Br.CCC[C@H](N[C@H]1CCc2cc(F)cc(F)c2C1)C(=O)Nc1cn(C(C)(C)CNCC(C)(C)C)cn1 [Form CSIII, (S)-2-(((S)-6,8-difluoro-1,2,3,4-tetrahydronaphthalen-2-yl)amino)-N-(1-(2-methyl-1-(neopentylamino)propan-2-yl)-1H-imidazol-4-yl) pentanamide]	Time the form keeps stable ([7]; 60° C./75% RH, sealed with desiccants and antioxidants): at least 2 months
		6.7	7.6	agglomerates	646	21.2	415	1640	629	14.4	356	1660	0.251	10.8	0.282	0.37			Br.Br.CCC[C@H](N[C@H]1CCc2cc(F)cc(F)c2C1)C(=O)Nc1cn(C(C)(C)CNCC(C)(C)C)cn1 [Form A, (S)-2-(((S)-6,8-difluoro-1,2,3,4-tetrahydronaphthalen-2-yl)amino)-N-(1-(2-methyl-1-(neopentylamino)propan-2-yl)-1H-imidazol-4-yl) pentanamide, reference compound]	Solubility in water, class by standards of Chinese Pharmacopoeia and United States Pharmacopoeia (physchem): slightly soluble
